Data from ChEMBL document CHEMBL1201862, “PubChem BioAssay data set” (2004).
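In this assay, cells in 96-well plates receive the compound at five concentrations for 48 hours. Endpoints are linearly interpolated between the surrounding concentrations. Abbreviation: GI50, concentration required for 50% inhibition of growth.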 The source made the active and inactive calls. Cut-off read from the data, not from the text of the source: active = GI50 up to about 1.1 µM and inactive = higher.

What was measured:
Test in all cases: inhibition of tumour cell growth, NCI panel, 48 h
[1] = test system: SNB-78
[2] = test system: DLD-1
[3] = test system: RXF 631
[4] = test system: XF498
[5] = test system: LXFL 529
[6] = test system: DMS-273
[7] = test system: KM-20L2
[8] = test system: HOP-18
[9] = test system: BT-549

SMILES: OC(c1ccccc1)C1CC2C=CC1C2 (stereo not drawn)
- GI50 [1]: > 100 µM (inactive)
- GI50 [2]: > 100 µM (inactive)
- GI50 [3]: > 100 µM (inactive)
- GI50 [4]: > 100 µM (inactive)
- GI50 [5]: > 100 µM (inactive)
- GI50 [6]: > 100 µM (inactive)

SMILES: CN1C(=O)CCC1(O)C1C=CC=CC1 (stereo not drawn)
- GI50 [1]: > 100 µM (inactive)
- GI50 [2]: > 100 µM (inactive)
- GI50 [3]: > 100 µM (inactive)
- GI50 [4]: > 100 µM (inactive)
- GI50 [5]: > 100 µM (inactive)
- GI50 [6]: > 100 µM (inactive)
- GI50 [7]: > 100 µM (inactive)

SMILES: O=[N+]([O-])c1ccccc1S(=O)(=O)c1ccccc1
- GI50 [2]: > 100 µM (inactive)
- GI50 [3]: 18.5 µM (inactive)
- GI50 [4]: 0.321 µM (active)
- GI50 [5]: > 100 µM (inactive)
- GI50 [6]: > 100 µM (inactive)
- GI50 [7]: > 100 µM (inactive)
- GI50 [8]: > 100 µM (inactive)

SMILES: O=C(CCN1CCN(c2cccc(Cl)c2)CC1)N1CCc2c([nH]c3ccccc23)C1c1cccnc1 (stereo not drawn)
- GI50 [1]: 3.72 µM (inactive)
- GI50 [2]: 5.32 µM (inactive)
- GI50 [3]: 2.59 µM (inactive)
- GI50 [4]: 3.27 µM (inactive)
- GI50 [5]: 4.19 µM (inactive)
- GI50 [6]: 8.28 µM (inactive)
- GI50 [7]: 5.52 µM (inactive)
- GI50 [8]: 12.8 µM (inactive)

SMILES: OC(CCNC12CC3CC(CC(C3)C1)C2)c1ccccc1 (stereo not drawn)
- GI50 [1]: > 100 µM (inactive)
- GI50 [2]: 99.8 µM (inactive)
- GI50 [3]: > 100 µM (inactive)
- GI50 [4]: > 100 µM (inactive)
- GI50 [5]: > 100 µM (inactive)
- GI50 [6]: 80.4 µM (inactive)
- GI50 [7]: 49.3 µM (inactive)
- GI50 [8]: > 100 µM (inactive)

SMILES: Cc1cc2c(cc1C)[n+]([O-])c(C(=O)/C=C/c1ccccc1Cl)c(C)[n+]2[O-]
- GI50 [1]: 33.7 µM (inactive)
- GI50 [2]: 19.5 µM (inactive)
- GI50 [3]: 24.7 µM (inactive)
- GI50 [4]: 18.5 µM (inactive)
- GI50 [5]: 18.2 µM (inactive)
- GI50 [6]: 29.4 µM (inactive)
- GI50 [7]: 35.2 µM (inactive)
- GI50 [8]: 29.3 µM (inactive)

SMILES: O=C1CC2CCCCC2=C1O (stereo not drawn)
- GI50 [1]: > 100 µM (inactive)
- GI50 [2]: > 100 µM (inactive)
- GI50 [3]: > 100 µM (inactive)
- GI50 [4]: > 100 µM (inactive)
- GI50 [5]: > 100 µM (inactive)
- GI50 [6]: > 100 µM (inactive)

SMILES: CN(C)C(=S)/N=c1\ssc(=S)n1Cc1ccco1
- GI50 [1]: 3.18 µM (inactive)
- GI50 [2]: 2.86 µM (inactive)
- GI50 [3]: 4.69 µM (inactive)
- GI50 [4]: 4.39 µM (inactive)
- GI50 [5]: 3.48 µM (inactive)
- GI50 [9]: 12.2 µM (inactive)
- GI50 [6]: 0.587 µM (active)
- GI50 [7]: 1.93 µM (inactive)
- GI50 [8]: 82.2 µM (inactive)

SMILES: Cc1c2cc[n+](C)cc2c(C)c2c1sc1ccccc12
- GI50 [1]: 0.855 µM (active)
- GI50 [2]: 3.05 µM (inactive)
- GI50 [3]: 0.194 µM (active)
- GI50 [4]: 0.564 µM (active)
- GI50 [5]: 0.456 µM (active)
- GI50 [9]: 0.294 µM (active)
- GI50 [6]: 0.853 µM (active)
- GI50 [7]: 2.04 µM (inactive)
- GI50 [8]: 9.14 µM (inactive)
